Values of other authors as cited in US20240016826A1, “COMPOSITION, PHARMACEUTICAL COMPOSITION, USE OF A STABLE TOPICAL COMPOSITION COMPRISING A NANOEMULSION AND OF AT LEAST ONE ANTILEISHMANIAL COMPOUND, AND METHOD FOR THE TREATMENT OF CUTANEOUS LEISHMANIASIS” (priority 2020, published 2024).

Test system: L. (L.) major
Details: Old World patients, cutaneous leishmaniasis due to L. (L.) major (MOHEBALI et al., 2007)

Compound: CCCCCCCCCCCCCCCCOP(=O)([O-])OCC[N+](C)(C)C [miltefosine, hexadecylphosphocholine]
- cure rate: 93%
